In patent US20030088077A1, “Metal chelated dyestuff for inkjet recording and aqueous inkjet recording liquid using the same” (MITSUBISHI CHEMICAL CORPORATION, priority 1999, published 2003):

Experiments:
[1] = Indoor discoloring and fading property of a printed image (ozone resistance); type: physicochemical; conditions: ozone concentration 3 ppm, humidity 50 to 60%, 2 hours, light-shielded; specialized photoprint paper
Protocol: (b) Indoor discoloring and fading property of a printed image (ozone resistance):
In a light-shielded tank having an ozone concentration of 3 ppm, a printed matter was left on standing under a humidity of 50 to 60% for 2 hours, and the degree of discoloring and fading before and after the standing was measured by Macbeth densitometer (Gretag Macbeth SPM50, manufactured by Macbeth), and quantified as the form of a ΔE value. In the case of the specialized photoprint paper, a good result was obtained at the above measurement wherein the ΔE value was 11.2.

[2] = Light resistance of a recorded image (xenon fade-meter); type: physicochemical; conditions: 150 to 160 kJ/m^2 for 80 hours, specialized photoprint paper, larger value = more fading
Protocol: (a) Light resistance of a recorded image:
Using a xenon fade-meter (manufactured by Atlas), a recording paper was irradiated at an irradiation energy of 150 to 160 kJ/m^2 for 80 hours, and the degree of discoloring and fading before and after the irradiation was measured by Macbeth densitometer (Gretag Macbeth SPM50, manufactured by Macbeth), and quantified as the form of a ΔE value. Incidentally, the ΔE value is a numerical value expressing the degree of discoloring and fading. That is, the larger the value is, the larger the degree of discoloring and fading is and the lower the light fastness of the image is. In the case of the specialized photoprint paper, a good result was obtained at the above measurement wherein the ΔE value was 2.1.

With N#Cc1nc(/N=N/c2ccc(N(CCC(=O)[O-])CCC(=O)[O-])cc2N)[nH]c1C#N.[Na+].[Na+] [Comparative dyestuff b] the “Indoor discoloring & fading property (ΔE)” value [1] was 4.3 and the “Light resistance (ΔE)” value [2] was 7.0.
